Assay results: PubChem BioAssay AID328 (DTP/NCI, 2004)
“And” between values parts separate entries of the source, which are not always exact repeats. Equal values may be shown once. Inconclusive results and toxic doses are left out. Rule for the calls: active = survival T/C of 150% or more; inactive = T/C below 125% in these data.

Test system: BDF1 mice, P388 leukemia ip, median survival T/C
Experiment: NCI In Vivo Anticancer Drug Screen. Data for tumor model P388 Leukemia (intraperitoneal) in B6D2F1 (BDF1) mice
Conditions: endpoint: median survival time, higher = longer survival
Procedure, shortened: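 Each value expresses how treatment altered survival: treated-mouse outcome over vehicle-mouse outcome, both groups bearing the transplanted tumour.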

[1] = dose: 100.0 mg/kg/injection, schedule: Q01DX001 (ip), vehicle: saline with Tween-80
[2] = dose: 200.0 mg/kg/injection, schedule: Q01DX001 (ip), vehicle: saline with Tween-80
[3] = dose: 400.0 mg/kg/injection, schedule: Q01DX001 (ip), vehicle: saline with Tween-80
[4] = dose: 25.0 mg/kg/injection, schedule: Q01DX009 (ip), vehicle: saline with Tween-80
[5] = dose: 50.0 mg/kg/injection, schedule: Q01DX009 (ip), vehicle: saline with Tween-80
[6] = dose: 100.0 mg/kg/injection, schedule: Q01DX009 (ip), vehicle: saline with Tween-80
[7] = dose: 50.0 mg/kg/injection, schedule: Q04DX003 (ip), vehicle: saline
[8] = dose: 100.0 mg/kg/injection, schedule: Q04DX003 (ip), vehicle: saline
[9] = dose: 200.0 mg/kg/injection, schedule: Q04DX003 (ip), vehicle: saline
[10] = dose: 50.0 mg/kg/injection, schedule: Q04DX003 (ip), vehicle: saline with Tween-80
[11] = dose: 100.0 mg/kg/injection, schedule: Q04DX003 (ip), vehicle: saline with Tween-80
[12] = dose: 25.0 mg/kg/injection, schedule: Q04DX003 (ip), vehicle: saline with Tween-80
[13] = dose: 100.0 mg/kg/injection, schedule: Q04DX003 (ip), vehicle: Klucel (hydroxypropylcellulose) (HPC)
[14] = dose: 200.0 mg/kg/injection, schedule: Q04DX003 (ip), vehicle: Klucel (hydroxypropylcellulose) (HPC)
[15] = dose: 400.0 mg/kg/injection, schedule: Q04DX003 (ip), vehicle: Klucel (hydroxypropylcellulose) (HPC)
[16] = dose: 200.0 mg/kg/injection, schedule: Q01DX009 (ip), vehicle: saline with Tween-80
[17] = dose: 400.0 mg/kg/injection, schedule: Q01DX009 (ip), vehicle: saline with Tween-80
[18] = dose: 100.0 mg/kg/injection, schedule: Q01DX009 (ip), vehicle: Klucel (hydroxypropylcellulose) (HPC)
[19] = dose: 200.0 mg/kg/injection, schedule: Q01DX009 (ip), vehicle: Klucel (hydroxypropylcellulose) (HPC)
[20] = dose: 400.0 mg/kg/injection, schedule: Q04DX003 (ip), vehicle: saline with Tween-80
[21] = dose: 200.0 mg/kg/injection, schedule: Q04DX003 (ip), vehicle: saline with Tween-80

Measured: T/C

CN=C(N)c1ccc(NC(=O)c2ccc(C(=O)Nc3ccc(C(N)=NC)cc3)cc2)cc1
active: dose: 15.0 mg/kg/injection, schedule: Q01DX010 (ip), vehicle: saline 150 % of control and 160 % of control | dose: 30.0 mg/kg/injection, schedule: Q01DX010 (ip), vehicle: saline 160 % of control and 175 % of control | dose: 60.0 mg/kg/injection, schedule: Q01DX010 (ip), vehicle: saline 175 % of control and 180 % of control | dose: 120.0 mg/kg/injection, schedule: Q01DX010 (ip), vehicle: saline 160 % of control

O=C(CCC(O)c1ccccc1)NCc1ccccc1 (stereo unspecified)
inactive: [1] 104 % of control | [2] 100 % of control | [3] 90 % of control

Cc1c[se]c(=S)s1
inactive: [4] 101 % of control | [5] 96 % of control | [6] 98 % of control

O=C1CSCC(=O)C1
inactive: dose: 100.0 mg/kg/injection, schedule: Q04DX002 (ip), vehicle: saline with Tween-80 94 % of control | dose: 200.0 mg/kg/injection, schedule: Q04DX002 (ip), vehicle: saline with Tween-80 96 % of control | dose: 400.0 mg/kg/injection, schedule: Q04DX002 (ip), vehicle: saline with Tween-80 96 % of control

CN(C)CCC(=O)c1ccc(Cl)cc1
inactive: dose: 18.8 mg/kg/injection, schedule: Q01DX009 (ip), vehicle: saline with Tween-80 96 % of control | dose: 37.5 mg/kg/injection, schedule: Q01DX009 (ip), vehicle: saline with Tween-80 93 % of control | dose: 75.0 mg/kg/injection, schedule: Q01DX009 (ip), vehicle: saline with Tween-80 113 % of control

COc1cc2ccc3c(c2cc1OC)CNCC3
inactive: [7] 104 % of control | [8] 109 % of control | [9] 109 % of control

OCCC1(CCO)CCCCC1
inactive: dose: 10.0 mg/kg/injection, schedule: Q01DX009 (ip), vehicle: saline with Tween-80 100 % of control | dose: 20.0 mg/kg/injection, schedule: Q01DX009 (ip), vehicle: saline with Tween-80 105 % of control | dose: 40.0 mg/kg/injection, schedule: Q01DX009 (ip), vehicle: saline with Tween-80 110 % of control | [10] 109 % of control | [11] 100 % of control

NC(COc1ccccc1)Cc1ccccc1 (stereo unspecified)
inactive: [12] 113 % of control | dose: 25.0 mg/kg/injection, schedule: Q04DX003 (ip), vehicle: suspension in saline 90 % of control | [10] 123 % of control | dose: 50.0 mg/kg/injection, schedule: Q04DX003 (ip), vehicle: suspension in saline 90 % of control | [11] 105 % of control | [8] 109 % of control | dose: 100.0 mg/kg/injection, schedule: Q04DX003 (ip), vehicle: suspension in saline 98 % of control

Cc1c(O)ccc([N+](=O)[O-])c1O
inactive: dose: 6.25 mg/kg/injection, schedule: Q01DX009 (ip), vehicle: saline with Tween-80 91 % of control | dose: 6.25 mg/kg/injection, schedule: Q04DX003 (ip), vehicle: saline with Tween-80 104 % of control | dose: 12.5 mg/kg/injection, schedule: Q01DX009 (ip), vehicle: saline with Tween-80 100 % of control | dose: 12.5 mg/kg/injection, schedule: Q04DX003 (ip), vehicle: saline with Tween-80 91 % of control | [4] 91 % of control | [12] 104 % of control

CC(=O)c1ccccc1Br
inactive: dose: 100.0 mg/kg/injection, schedule: Q01DX001 (ip), vehicle: Klucel (hydroxypropylcellulose) (HPC) 95 % of control | [13] 95 % of control | dose: 200.0 mg/kg/injection, schedule: Q01DX001 (ip), vehicle: Klucel (hydroxypropylcellulose) (HPC) 108 % of control | [14] 100 % of control | dose: 400.0 mg/kg/injection, schedule: Q01DX001 (ip), vehicle: Klucel (hydroxypropylcellulose) (HPC) 100 % of control | [15] 100 % of control

Nc1cccs1
inactive: dose: 9.38 mg/kg/injection, schedule: Q01DX009 (ip), vehicle: other 104 % of control | dose: 18.75 mg/kg/injection, schedule: Q01DX009 (ip), vehicle: other 100 % of control | dose: 37.5 mg/kg/injection, schedule: Q01DX009 (ip), vehicle: other 100 % of control | [5] 98 % of control | dose: 75.0 mg/kg/injection, schedule: Q01DX009 (ip), vehicle: other 98 % of control | [6] 116 % of control | dose: 150.0 mg/kg/injection, schedule: Q01DX009 (ip), vehicle: other 101 % of control | [16] 114 % of control | [17] 87 % of control

COc1ccc(NC(=O)Oc2c(C(C)C)cccc2C(C)C)cc1
inactive: [13] 100 % of control | [14] 91 % of control | [15] 100 % of control

COc1cc(/C=N\NC(=O)OC(C)(C)C)cc(OC)c1OC
inactive: [5] 118 % of control | [6] 113 % of control | [16] 86 % of control

CC(=O)CC(C)=O.CC(=O)CC(C)=O.CC(=O)CC(C)=O.[Ga]
inactive: dose: 25.0 mg/kg/injection, schedule: Q04DX003 (ip), vehicle: saline 100 % of control | [7] 95 % of control | [8] 86 % of control

CC1=NN(CCO)C(=O)C1
inactive: [5] 95 % of control | [6] 92 % of control | [16] 93 % of control

O=S(=O)(O)c1ccc(Br)cc1
inactive: dose: 100.0 mg/kg/injection, schedule: Q01DX009 (ip), vehicle: saline 92 % of control | [8] 115 % of control | dose: 200.0 mg/kg/injection, schedule: Q01DX009 (ip), vehicle: saline 107 % of control | [9] 110 % of control | dose: 400.0 mg/kg/injection, schedule: Q01DX009 (ip), vehicle: saline 100 % of control | dose: 400.0 mg/kg/injection, schedule: Q04DX003 (ip), vehicle: saline 115 % of control

CC(C)(C)OC(=O)C(C=O)N1C(=O)c2ccccc2C1=O (stereo unspecified)
inactive: [1] 95 % of control | [2] 95 % of control | [3] 100 % of control

O=C(O)C(Cc1ccc(O)cc1)c1ccccc1 (stereo unspecified)
inactive: [18] 86 % of control | [13] 90 % of control | [19] 95 % of control | [14] 90 % of control | dose: 400.0 mg/kg/injection, schedule: Q01DX009 (ip), vehicle: Klucel (hydroxypropylcellulose) (HPC) 109 % of control | [15] 95 % of control

Nc1cc(N)nc(S(=O)O)n1
inactive: dose: 25.0 mg/kg/injection, schedule: Q01DX009 (ip), vehicle: Klucel (hydroxypropylcellulose) (HPC) 95 % of control and 111 % of control and 120 % of control | dose: 25.0 mg/kg/injection, schedule: Q04DX003 (ip), vehicle: Klucel (hydroxypropylcellulose) (HPC) 104 % of control | dose: 50.0 mg/kg/injection, schedule: Q01DX009 (ip), vehicle: Klucel (hydroxypropylcellulose) (HPC) 95 % of control | dose: 50.0 mg/kg/injection, schedule: Q04DX003 (ip), vehicle: Klucel (hydroxypropylcellulose) (HPC) 95 % of control | [18] 90 % of control and 110 % of control | [13] 100 % of control

COc1ccc2[nH]ccc(=O)c2c1
inactive: [5] 102 % of control | [6] 96 % of control | [16] 105 % of control

Nc1ncc([N+](=O)[O-])cn1
inactive: [18] 95 % of control | [19] 90 % of control

O=[N+]([O-])c1cccc(O)c1
inactive: dose: 100.0 mg/kg/injection, schedule: Q01DX001 (ip), vehicle: saline 100 % of control | [6] 109 % of control | [8] 118 % of control | dose: 200.0 mg/kg/injection, schedule: Q01DX001 (ip), vehicle: saline 100 % of control | [16] 86 % of control | [9] 100 % of control | dose: 400.0 mg/kg/injection, schedule: Q01DX001 (ip), vehicle: saline 100 % of control

CC(=O)OCC(COC(C)=O)=C1N=C(c2ccccc2)OC1=O
inactive: [5] 107 % of control | [6] 96 % of control | [11] 118 % of control | [16] 115 % of control | [20] 118 % of control

CC(=O)Nc1ccc(/C=C/C(=O)c2ccc(Cl)cc2)cc1
inactive: [6] 100 % of control | [11] 104 % of control | [16] 100 % of control | [21] 100 % of control | [17] 100 % of control | [20] 90 % of control

Cc1ccc2c(=O)n3cccc3c(=O)[nH]c2c1O
inactive: [11] 103 % of control | [21] 100 % of control | [20] 96 % of control
